Assay results taken from patent publication US20140323300A1, “HERBICIDAL COMPOUNDS” (SYNGENTA LIMITED, priority 2011, published 2014).

What was measured:
Type in all cases: in vivo
[1] = system: Alopecurus myosuroides (ALOMY); experiment: Post-emergence glasshouse herbicide test; details: post-emergence (sprayed after 8 days cultivation), 1000 g/h, evaluated after 13 days, five point scale
Description: (§1) Seeds of a variety of test species are sown in standard soil in pots (Alopecurus myosuroides (ALOMY), Setaria faberi (SETFA), Echinochloa crus-galli (ECHCG), Solanum nigrum (SOLNI), Amaranthus retoflexus (AMARE), Ipomoea hederacea (IPOHE)). After cultivation for one day (pre-emergence) or after 8 days cultivation (post-emergence) under controlled conditions in a glasshouse (at 24/16° C., day/night; 14 hours light; 65% humidity), the plants are sprayed with an aqueous spray solution derived from the formulation of the technical active ingredient in acetone/water (50:50) solution containing 0.5% Tween 20 (polyoxyethelyene sorbitan monolaurate, CAS RN 9005-64-5). Compounds are applied at 1000 g/h. The test plants are then grown in a glasshouse under controlled conditions in a glasshouse (at 24/16° C., day/night; 14 hours light; 65% humidity) and watered twice daily. After 13 days for pre and post-emergence, the test is evaluated for the percentage damage caused to the plant. The biological activities are shown in the following table on a five point scale (5=80-100%; 4=60-79%; 3=40-59%; 2=20-39%; 1=0-19%).

[2] = system: Amaranthus retoflexus (AMARE); experiment: Post-emergence glasshouse herbicide test; details: post-emergence (sprayed after 8 days cultivation), 1000 g/h, evaluated after 13 days, five point scale
Description: as §1

[3] = system: Echinochloa crus-galli (ECHCG); experiment: Post-emergence glasshouse herbicide test; details: post-emergence (sprayed after 8 days cultivation), 1000 g/h, evaluated after 13 days, five point scale
Description: as §1

[4] = system: Ipomoea hederacea (IPOHE); experiment: Post-emergence glasshouse herbicide test; details: post-emergence (sprayed after 8 days cultivation), 1000 g/h, evaluated after 13 days, five point scale
Description: as §1

Setaria faberi (SETFA) [5] = experiment: Post-emergence glasshouse herbicide test; details: post-emergence (sprayed after 8 days cultivation), 1000 g/h, evaluated after 13 days, five point scale
Description: as §1

Solanum nigrum (SOLNI) [6] = experiment: Post-emergence glasshouse herbicide test; details: post-emergence (sprayed after 8 days cultivation), 1000 g/h, evaluated after 13 days, five point scale
Description: as §1

[7] = system: Alopecurus myosuroides (ALOMY); experiment: Pre-emergence glasshouse herbicide test; details: pre-emergence (sprayed after one day cultivation), 1000 g/h, evaluated after 13 days, five point scale
Description: as §1

[8] = system: Amaranthus retoflexus (AMARE); experiment: Pre-emergence glasshouse herbicide test; details: pre-emergence (sprayed after one day cultivation), 1000 g/h, evaluated after 13 days, five point scale
Description: as §1

[9] = system: Echinochloa crus-galli (ECHCG); experiment: Pre-emergence glasshouse herbicide test; details: pre-emergence (sprayed after one day cultivation), 1000 g/h, evaluated after 13 days, five point scale
Description: as §1

[10] = system: Ipomoea hederacea (IPOHE); experiment: Pre-emergence glasshouse herbicide test; details: pre-emergence (sprayed after one day cultivation), 1000 g/h, evaluated after 13 days, five point scale
Description: as §1

Setaria faberi (SETFA) [11] = experiment: Pre-emergence glasshouse herbicide test; details: pre-emergence (sprayed after one day cultivation), 1000 g/h, evaluated after 13 days, five point scale
Description: as §1

Solanum nigrum (SOLNI) [12] = experiment: Pre-emergence glasshouse herbicide test; details: pre-emergence (sprayed after one day cultivation), 1000 g/h, evaluated after 13 days, five point scale
Description: as §1

## O=c1c(O)c(Cl)cnn1-c1ccc(Cl)cc1Cl [Compound 1.001]
[1]
  percentage damage caused to the plant, POST Application ALOMY: 1 (1=0-19%)
[2]
  percentage damage caused to the plant, POST Application AMARE: 5 (5=80-100%)
[3]
  percentage damage caused to the plant, POST Application ECHCG: 5 (5=80-100%)
[4]
  percentage damage caused to the plant, POST Application IPOHE: 5 (5=80-100%)
Setaria faberi (SETFA) [5]
  percentage damage caused to the plant, POST Application SETFA: 5 (5=80-100%)
Solanum nigrum (SOLNI) [6]
  percentage damage caused to the plant, POST Application SOLNI: 5 (5=80-100%)
[7]
  percentage damage caused to the plant, PRE Application ALOMY: 2 (2=20-39%)
[8]
  percentage damage caused to the plant, PRE Application AMARE: 4 (4=60-79%)
[9]
  percentage damage caused to the plant, PRE Application ECHCG: 4 (4=60-79%)
[10]
  percentage damage caused to the plant, PRE Application IPOHE: 1 (1=0-19%)
Setaria faberi (SETFA) [11]
  percentage damage caused to the plant, PRE Application SETFA: 4 (4=60-79%)
Solanum nigrum (SOLNI) [12]
  percentage damage caused to the plant, PRE Application SOLNI: 3 (3=40-59%)

## O=c1c(O)c(Cl)cnn1-c1ccc(C(F)(F)F)cc1Cl [Compound 1.002, 5-chloro-2-[2-chloro-4-(trifluoromethyl)phenyl]-4-hydroxy-pyridazin-3-one]
[1]
  percentage damage caused to the plant, POST Application ALOMY: 1 (1=0-19%)
[2]
  percentage damage caused to the plant, POST Application AMARE: 5 (5=80-100%)
[3]
  percentage damage caused to the plant, POST Application ECHCG: 5 (5=80-100%)
[4]
  percentage damage caused to the plant, POST Application IPOHE: 5 (5=80-100%)
Setaria faberi (SETFA) [5]
  percentage damage caused to the plant, POST Application SETFA: 5 (5=80-100%)
Solanum nigrum (SOLNI) [6]
  percentage damage caused to the plant, POST Application SOLNI: 5 (5=80-100%)
[7]
  percentage damage caused to the plant, PRE Application ALOMY: 2 (2=20-39%)
[8]
  percentage damage caused to the plant, PRE Application AMARE: 5 (5=80-100%)
[9]
  percentage damage caused to the plant, PRE Application ECHCG: 5 (5=80-100%)
[10]
  percentage damage caused to the plant, PRE Application IPOHE: 4 (4=60-79%)
Setaria faberi (SETFA) [11]
  percentage damage caused to the plant, PRE Application SETFA: 4 (4=60-79%)
Solanum nigrum (SOLNI) [12]
  percentage damage caused to the plant, PRE Application SOLNI: 5 (5=80-100%)

## CS(=O)(=O)c1cc(C(F)(F)F)ccc1-n1ncc(Cl)c(O)c1=O [Compound 1.003]
[1]
  percentage damage caused to the plant, POST Application ALOMY: 5 (5=80-100%)
[2]
  percentage damage caused to the plant, POST Application AMARE: 5 (5=80-100%)
[3]
  percentage damage caused to the plant, POST Application ECHCG: 5 (5=80-100%)
[4]
  percentage damage caused to the plant, POST Application IPOHE: 5 (5=80-100%)
Setaria faberi (SETFA) [5]
  percentage damage caused to the plant, POST Application SETFA: 5 (5=80-100%)
Solanum nigrum (SOLNI) [6]
  percentage damage caused to the plant, POST Application SOLNI: 5 (5=80-100%)
[7]
  percentage damage caused to the plant, PRE Application ALOMY: 5 (5=80-100%)
[8]
  percentage damage caused to the plant, PRE Application AMARE: 5 (5=80-100%)
[9]
  percentage damage caused to the plant, PRE Application ECHCG: 5 (5=80-100%)
[10]
  percentage damage caused to the plant, PRE Application IPOHE: 5 (5=80-100%)
Setaria faberi (SETFA) [11]
  percentage damage caused to the plant, PRE Application SETFA: 5 (5=80-100%)
Solanum nigrum (SOLNI) [12]
  percentage damage caused to the plant, PRE Application SOLNI: 5 (5=80-100%)

## Cc1c(-n2ncc(Cl)c(O)c2=O)ccc(S(C)(=O)=O)c1C1=NOCC1 [Compound 1.004]
[1]
  percentage damage caused to the plant, POST Application ALOMY: 5 (5=80-100%)
[2]
  percentage damage caused to the plant, POST Application AMARE: 5 (5=80-100%)
[3]
  percentage damage caused to the plant, POST Application ECHCG: 5 (5=80-100%)
[4]
  percentage damage caused to the plant, POST Application IPOHE: 5 (5=80-100%)
Setaria faberi (SETFA) [5]
  percentage damage caused to the plant, POST Application SETFA: 5 (5=80-100%)
Solanum nigrum (SOLNI) [6]
  percentage damage caused to the plant, POST Application SOLNI: 5 (5=80-100%)
[7]
  percentage damage caused to the plant, PRE Application ALOMY: 5 (5=80-100%)
[8]
  percentage damage caused to the plant, PRE Application AMARE: 5 (5=80-100%)
[9]
  percentage damage caused to the plant, PRE Application ECHCG: 5 (5=80-100%)
[10]
  percentage damage caused to the plant, PRE Application IPOHE: 5 (5=80-100%)
Setaria faberi (SETFA) [11]
  percentage damage caused to the plant, PRE Application SETFA: 5 (5=80-100%)
Solanum nigrum (SOLNI) [12]
  percentage damage caused to the plant, PRE Application SOLNI: 5 (5=80-100%)

## CCc1cnn(-c2ccc(S(C)(=O)=O)c(C3=NOCC3)c2C)c(=O)c1O [Compound 1.005]
[1]
  percentage damage caused to the plant, POST Application ALOMY: 5 (5=80-100%)
[2]
  percentage damage caused to the plant, POST Application AMARE: 5 (5=80-100%)
[3]
  percentage damage caused to the plant, POST Application ECHCG: 5 (5=80-100%)
[4]
  percentage damage caused to the plant, POST Application IPOHE: 5 (5=80-100%)
Setaria faberi (SETFA) [5]
  percentage damage caused to the plant, POST Application SETFA: 5 (5=80-100%)
Solanum nigrum (SOLNI) [6]
  percentage damage caused to the plant, POST Application SOLNI: 5 (5=80-100%)
[7]
  percentage damage caused to the plant, PRE Application ALOMY: 4 (4=60-79%)
[8]
  percentage damage caused to the plant, PRE Application AMARE: 5 (5=80-100%)
[9]
  percentage damage caused to the plant, PRE Application ECHCG: 4 (4=60-79%)
[10]
  percentage damage caused to the plant, PRE Application IPOHE: 4 (4=60-79%)
Setaria faberi (SETFA) [11]
  percentage damage caused to the plant, PRE Application SETFA: 2 (2=20-39%)
Solanum nigrum (SOLNI) [12]
  percentage damage caused to the plant, PRE Application SOLNI: 5 (5=80-100%)

## C=Cc1cnn(-c2ccc(S(C)(=O)=O)c(C3=NOCC3)c2C)c(=O)c1O [Compound 1.006]
[1]
  percentage damage caused to the plant, POST Application ALOMY: 4 (4=60-79%)
[2]
  percentage damage caused to the plant, POST Application AMARE: 5 (5=80-100%)
[3]
  percentage damage caused to the plant, POST Application ECHCG: 5 (5=80-100%)
[4]
  percentage damage caused to the plant, POST Application IPOHE: 5 (5=80-100%)
Setaria faberi (SETFA) [5]
  percentage damage caused to the plant, POST Application SETFA: 5 (5=80-100%)
Solanum nigrum (SOLNI) [6]
  percentage damage caused to the plant, POST Application SOLNI: 5 (5=80-100%)
[7]
  percentage damage caused to the plant, PRE Application ALOMY: 1 (1=0-19%)
[8]
  percentage damage caused to the plant, PRE Application AMARE: 5 (5=80-100%)
[9]
  percentage damage caused to the plant, PRE Application ECHCG: 5 (5=80-100%)
[10]
  percentage damage caused to the plant, PRE Application IPOHE: 4 (4=60-79%)
Setaria faberi (SETFA) [11]
  percentage damage caused to the plant, PRE Application SETFA: 4 (4=60-79%)
Solanum nigrum (SOLNI) [12]
  percentage damage caused to the plant, PRE Application SOLNI: 5 (5=80-100%)

## C=C(C)c1cnn(-c2ccc(S(C)(=O)=O)c(C3=NOCC3)c2C)c(=O)c1O [Compound 1.007]
[1]
  percentage damage caused to the plant, POST Application ALOMY: 5 (5=80-100%)
[2]
  percentage damage caused to the plant, POST Application AMARE: 5 (5=80-100%)
[3]
  percentage damage caused to the plant, POST Application ECHCG: 5 (5=80-100%)
[4]
  percentage damage caused to the plant, POST Application IPOHE: 5 (5=80-100%)
Setaria faberi (SETFA) [5]
  percentage damage caused to the plant, POST Application SETFA: 5 (5=80-100%)
Solanum nigrum (SOLNI) [6]
  percentage damage caused to the plant, POST Application SOLNI: 5 (5=80-100%)
[7]
  percentage damage caused to the plant, PRE Application ALOMY: 3 (3=40-59%)
[8]
  percentage damage caused to the plant, PRE Application AMARE: 5 (5=80-100%)
[9]
  percentage damage caused to the plant, PRE Application ECHCG: 5 (5=80-100%)
[10]
  percentage damage caused to the plant, PRE Application IPOHE: 5 (5=80-100%)
Setaria faberi (SETFA) [11]
  percentage damage caused to the plant, PRE Application SETFA: 3 (3=40-59%)
Solanum nigrum (SOLNI) [12]
  percentage damage caused to the plant, PRE Application SOLNI: 4 (4=60-79%)

## Cc1c(-n2nccc(O)c2=O)ccc(S(C)(=O)=O)c1C1=NOCC1 [Compound 1.008]
[1]
  percentage damage caused to the plant, POST Application ALOMY: 5 (5=80-100%)
[2]
  percentage damage caused to the plant, POST Application AMARE: 5 (5=80-100%)
[3]
  percentage damage caused to the plant, POST Application ECHCG: 5 (5=80-100%)
[4]
  percentage damage caused to the plant, POST Application IPOHE: 5 (5=80-100%)
Setaria faberi (SETFA) [5]
  percentage damage caused to the plant, POST Application SETFA: 5 (5=80-100%)
Solanum nigrum (SOLNI) [6]
  percentage damage caused to the plant, POST Application SOLNI: 5 (5=80-100%)
[7]
  percentage damage caused to the plant, PRE Application ALOMY: 2 (2=20-39%)
[8]
  percentage damage caused to the plant, PRE Application AMARE: 5 (5=80-100%)
[9]
  percentage damage caused to the plant, PRE Application ECHCG: 5 (5=80-100%)
[10]
  percentage damage caused to the plant, PRE Application IPOHE: 5 (5=80-100%)
Setaria faberi (SETFA) [11]
  percentage damage caused to the plant, PRE Application SETFA: 5 (5=80-100%)
Solanum nigrum (SOLNI) [12]
  percentage damage caused to the plant, PRE Application SOLNI: 5 (5=80-100%)
